In patent US5278167A, “6-pyridyl substituted pyrimidine derivatives” (Brown University Research Foundation, priority 1992, dated 1994):
Entries after “also recorded” stand apart in the source; their conditions may differ. Read-outs that look alike come from different tables or passages of the source.

Columns and labels:
HIV-1 = assay: anti-HIV activity: protection of T4 lymphocytes from HIV-1 cytolysis (XTT); assay type: cell-based; settings: HIV-1 in CEM cells
Protocol: (§1) The procedure used to test the 6-pyridyl substituted pyrimidine derivatives activity against HIV is designed to detect agents acting at any stage of the virus reproductive cycle (see Weislow et al. (1989) J. Nat'l. Cancer Inst. 81:577-586, incorporated by reference herein). The assay basically involves the killing of T4 lymphocytes by HIV. Small amounts of HIV are added to cells, and a complete cycle of virus reproduction is necessary to obtain the required cell killing. Agents that interact virions, cells, or virus gene-products to interfere with viral activities will protect cells from cytolysis. All tests are compared with at least one positive (e.g., AZT-treated) control done at the same time under identical conditions.
(§2) 1. The candidate pyrimidine derivative is dissolved in dimethyl sulfoxide then diluted 1:100 in cell culture medium before preparing serial half-log10 dilutions. T4 lymphocytes (CEM cell line) are added and after a brief interval HIV-1 is added, resulting in a 1:200 final dilution of the compound. […]
(§3) 4. Individual wells are analyzed spectrophotomically to quantitate formazan production, and in addition are viewed microscopically for detection of viable cells and confirmation of protective activity. […]
(§4) The anti-HIV activity profile of 1-benzyloxymethyl-5-ethyl-6-(α-pyridylthio) uracil determined by this procedure has been graphically represented in FIG. 1.

[1] = system: HCT-8.clone 10 (AZT resistant) cells; assay: growth inhibition of HCT-8.clone 10 (AZT resistant) cells; assay type: cell-based, human; settings: for inhibition at 10 µM / inhibition at 1 µM / inhibition at 100 µM: Homo sapiens, 72 hours, read-out: Percent Growth Inhibition; for inhibition at 1 µM: 5-FUra 1 micromolar; for inhibition at 100 µM: 5-FUra 100 micromolar
Protocol: (§5) In general, the experiments designed to assess the […] activity of 5-fluoropyrimidines in conjunction with the 6-pyridyl substituted pyrimidine are carried out as follows.
(§6) Screw cap plastic tissue culture tubes are seeded with identical numbers of cultured tumor cells (approximately 2×10^4 cells/tube) in 4.8 mL RPMI-1640 containing 10% Fetal Bovine Serum (FBS) and 2% HEPES (IM buffer solution). The cultures are incubated overnight, on their sides, at 37° C. in a nonhumidified […] incubator.
(§7) The following day, the number of cells in duplicate tubes is determined. The media is decanted, the cells rinsed with Hanks' Balanced Salt Solution (calcium, magnesium and bicarbonate free) and replaced with 4.0 mL of trypsin-EDTA solution. The tubes are incubated at 37° C. for 5 minutes, then shaken to loosen the cells from the tube walls. To each tube is then added 1.0 mL of FBS and medium (50:50) in order to stop the action of the trypsin. Clumps of cells are broken apart by forceful repipetting with a 10 mL glass pipette. The resulting single cell suspension is counted using trypan blue exclusion and the total number of cells per tube recorded as the starting cell number.
(§8) Cells suspended in RPMI/FBS are preincubated with or without BPTU for 30 minutes, followed by addition of a given dose of 5-FUra. Tables 1 and 2 present the cell growth inhibition after 72 hours incubation with varying concentrations of 5-FUra, in the presence or absence of preincubation with 10 micromolar BPTU.
(§9) Similarly, Table 2 reports the effects of 5-FUra used in conjunction with BPTU on ™HCT-8 cells.

HCT-8 cells = assay: growth inhibition of HCT-8 cells; assay type: cell-based, human; settings: for inhibition at 10 µM / inhibition at 1 µM / inhibition at 3 µM: Homo sapiens, 72 hours; for inhibition at 1 µM: 5-FUra 1 micromolar; for inhibition at 3 µM: 5-FUra 3 micromolar
Protocol: as §5, §6, §7, §8, §9

[2] = toxicity to T4 lymphocytes (CEM cell line), uninfected toxicity control (XTT); assay type: cell-based; settings: human, CEM cells, 6 days, read-out: toxic concentration (IC50)
Protocol: as §1, §2, §3, §4

[3] = with BPTU (10 micromolar) preincubated 30 minutes
[4] = with BPTU (10 micromolar) preincubated 30 minutes, read-out: Percent Growth Inhibition
[5] = without BPTU, read-out: Percent Growth Inhibition

SMILES: CCc1c(Sc2ccccn2)n(COCc2ccccc2)c(=O)[nH]c1=O [BPTU, 1-benzyloxymethyl-5-ethyl-6-(α-pyridylthio) uracil]
- therapeutic index (TI50) (HIV-1; 8640 min): > 1.1e+06 mM
- EC50 (HIV-1; Human immunodeficiency virus 1, CCRF-CEM, 144 h, 6 days, XTT, read-out: effective concentration (EC50)): 0.9 nM
- inhibition at 10 µM ([1]; 5-FUra 0, with BPTU (10 micromolar) alone): 0%
- growth inhibitory activity alone ([1]; alone at 10 micromolar, HCT-8.clone 10): not shown to be growth inhibitory
- inhibition of cell growth in combination with 5-FUra ([1]; combination with 5-FUra vs 5-FUra alone, HCT-8.clone 10): more effectively than 5FUra alone
- inhibition at 10 µM (HCT-8 cells; 5-FUra 0, with BPTU (10 micromolar) alone, read-out: Percent Growth Inhibition): 0%
- growth inhibitory activity alone (HCT-8 cells; alone at 10 micromolar): not shown to be growth inhibitory
- inhibition of cell growth in combination with 5-FUra (HCT-8 cells; combination with 5-FUra vs 5-FUra alone): more effectively than 5-FUra alone; also recorded: more effectively than 5FUra alone
- CC50 at 144 h [2]: > 980 nM

SMILES: O=c1[nH]cc(F)c(=O)[nH]1 [Example 5-FUra, 5-fluorouracil]
- inhibition at 1 µM [1, 3]: 23%
- inhibition at 1 µM ([1]; without BPTU): 0%
- inhibition at 10 µM ([1]; 5-FUra 10 micromolar, with BPTU (10 micromolar) preincubated 30 minutes, P<0.01): 74%
- inhibition at 10 µM ([1]; 5-FUra 10 micromolar, without BPTU): 29%
- inhibition at 100 µM [1, 3]: > 100%
- inhibition at 100 µM ([1]; without BPTU): 56%
- inhibition at 1 µM (HCT-8 cells; [4]): 33%
- inhibition at 1 µM (HCT-8 cells; [5]): 0%
- inhibition at 3 µM (HCT-8 cells; [4]): 55%
- inhibition at 3 µM (HCT-8 cells; [5]): 9%
- inhibition at 10 µM (HCT-8 cells; 5-FUra 10 micromolar, with BPTU (10 micromolar) preincubated 30 minutes, P<0.01, read-out: Percent Growth Inhibition): 80%
- inhibition at 10 µM (HCT-8 cells; 5-FUra 10 micromolar, without BPTU, read-out: Percent Growth Inhibition): 33%
